US10189841B2, “Purinones as ubiquitin-specific protease 1 inhibitors” (Forma Therapeutics, Inc., priority 2015, dated 2019)

Target: USP1 (construct USP1 (I-785, GG670, 671AA)/UAF1 (I-677)-Flag) (Homo sapiens (Human), UniProt O94782, G670A/G671A)
Assay: Ubiquitin-Rhodamine 110 assay for USP1 activity
Format: biochemical
Conditions: USP1/UAF1 25 pM, Ub-Rh110 25 nM, 30 min preincubation
Procedure, shortened: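 Two formats with the USP1/UAF1 complex and 25 nM ubiquitin-rhodamine 110 in pH 8.0 Tris buffer with calcium, glutathione and detergent. Single-point screening used 10 µM, 100 pM enzyme and 45 min. Inhibition was set against no-enzyme and DMSO wells.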

Sequence of USP1 (construct USP1 (I-785, GG670, 671AA)/UAF1 (I-677)-Flag) (O94782 whole entry G670A/G671A): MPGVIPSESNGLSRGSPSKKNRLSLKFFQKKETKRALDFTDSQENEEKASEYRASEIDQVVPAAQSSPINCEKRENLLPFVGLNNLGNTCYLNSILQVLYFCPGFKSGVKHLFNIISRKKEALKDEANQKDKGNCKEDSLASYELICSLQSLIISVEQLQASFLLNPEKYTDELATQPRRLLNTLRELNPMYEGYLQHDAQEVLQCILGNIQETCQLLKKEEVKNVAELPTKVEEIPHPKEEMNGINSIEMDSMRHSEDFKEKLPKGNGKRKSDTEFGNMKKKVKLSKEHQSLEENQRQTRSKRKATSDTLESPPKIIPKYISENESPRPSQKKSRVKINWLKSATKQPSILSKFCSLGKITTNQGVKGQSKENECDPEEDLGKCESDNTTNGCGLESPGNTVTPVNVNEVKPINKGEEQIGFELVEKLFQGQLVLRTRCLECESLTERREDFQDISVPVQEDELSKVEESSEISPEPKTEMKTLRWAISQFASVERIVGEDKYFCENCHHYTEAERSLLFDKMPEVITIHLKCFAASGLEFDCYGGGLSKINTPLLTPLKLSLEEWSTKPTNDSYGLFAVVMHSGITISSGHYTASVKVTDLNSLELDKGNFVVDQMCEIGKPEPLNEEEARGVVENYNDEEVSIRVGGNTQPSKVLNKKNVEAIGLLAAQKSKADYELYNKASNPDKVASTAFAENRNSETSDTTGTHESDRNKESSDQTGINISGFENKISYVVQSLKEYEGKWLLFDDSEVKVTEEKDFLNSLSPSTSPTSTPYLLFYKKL
Sequence of USP1 (construct USP1 (I-785, GG670, 671AA)/UAF1 (I-677)-Flag) (Q8TAF3 whole entry partner): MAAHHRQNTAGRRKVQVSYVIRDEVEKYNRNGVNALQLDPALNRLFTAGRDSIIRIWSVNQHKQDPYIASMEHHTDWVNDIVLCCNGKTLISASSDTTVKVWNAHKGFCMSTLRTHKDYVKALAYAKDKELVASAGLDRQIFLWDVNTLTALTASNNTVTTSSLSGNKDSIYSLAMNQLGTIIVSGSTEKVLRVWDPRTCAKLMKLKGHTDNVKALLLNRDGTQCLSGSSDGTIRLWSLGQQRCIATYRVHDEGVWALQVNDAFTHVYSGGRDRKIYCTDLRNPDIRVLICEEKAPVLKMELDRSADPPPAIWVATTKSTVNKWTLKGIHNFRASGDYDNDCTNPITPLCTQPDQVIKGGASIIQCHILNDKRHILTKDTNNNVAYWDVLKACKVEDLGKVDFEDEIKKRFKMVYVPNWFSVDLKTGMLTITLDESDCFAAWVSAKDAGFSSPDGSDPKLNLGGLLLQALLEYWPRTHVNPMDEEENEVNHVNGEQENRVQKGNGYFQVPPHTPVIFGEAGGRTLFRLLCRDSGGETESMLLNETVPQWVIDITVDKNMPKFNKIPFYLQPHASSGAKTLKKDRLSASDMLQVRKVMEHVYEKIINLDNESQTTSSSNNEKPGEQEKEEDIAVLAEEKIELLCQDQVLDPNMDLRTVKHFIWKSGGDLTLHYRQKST

CC(C)c1ccccc1-c1ncc2[nH]c(=O)n(Cc3ccc(C(=O)N4CCOC[C@H]4C)cc3)c2n1 [Compound I-404, (R)-2-(2-isopropylphenyl)-9-(4-(3-methylmorpholine-4-carbonyl)benzyl)-7,9-dihydro-8H-purin-8-one]
IC50: 200 to 2000 nM

CC(C)c1ccccc1-c1ncc2[nH]c(=O)n(Cc3ccc(C(=O)N4CCOC[C@@H]4C)cc3)c2n1 [Compound I-405, (S)-2-(2-isopropylphenyl)-9-(4-(3-methylmorpholine-4-carbonyl)benzyl)-7,9-dihydro-8H-purin-8-one]
IC50: 200 to 2000 nM

CC(C)c1ccccc1-c1ncc2[nH]c(=O)n(Cc3ccc(C(=O)N(C)CC(F)(F)F)cc3)c2n1 [Compound I-406, 4-((2-(2-isopropylphenyl)-8-oxo-7,8-dihydro-9H-purin-9-yl)methyl)-N-methyl-N-(2,2,2-trifluoroethyl)benzamide]
IC50: 50 to 200 nM

COCCN(C)C(=O)c1ccc(Cn2c(=O)[nH]c3cnc(-c4ccccc4C(C)C)nc32)cc1 [Compound I-407, 4-((2-(2-isopropylphenyl)-8-oxo-7,8-dihydro-9H-purin-9-yl)methyl)-N-(2-methoxyethyl)-N-methylbenzamide]
IC50: 50 to 200 nM

CC(C)c1ccccc1-c1ncc2[nH]c(=O)n(Cc3ccc(C(=O)NCCN(C)C)cc3)c2n1 [Compound I-408, N-(2-(dimethylamino)ethyl)-4-((2-(2-isopropylphenyl)-8-oxo-7,8-dihydro-9H-purin-9-yl)methyl)benzamide]
IC50: > 2000 nM

CC(C)c1ccccc1-c1ncc2[nH]c(=O)n(Cc3ccc(C(=O)NCCN4CCCCC4)cc3)c2n1 [Compound I-409, 4-((2-(2-isopropylphenyl)-8-oxo-7,8-dihydro-9H-purin-9-yl)methyl)-N-(2-(piperidin-1-yl)ethyl)benzamide]
IC50: > 2000 nM

CC(C)c1ccccc1-c1ncc2[nH]c(=O)n(Cc3ccc(C(=O)N4CCN(C)CC4)cc3)c2n1 [Compound I-410, 2-(2-isopropylphenyl)-9-(4-(4-methylpiperazine-1-carbonyl)benzyl)-7,9-dihydro-8H-purin-8-one]
IC50: > 2000 nM

CC(C)c1ccccc1-c1ncc2[nH]c(=O)n(Cc3ccc(C(=O)N4CCCC45COC5)cc3)c2n1 [Compound I-411, 9-(4-(2-oxa-5-azaspiro[3.4]octane-5-carbonyl)benzyl)-2-(2-isopropylphenyl)-7,9-dihydro-8H-purin-8-one]
IC50: < 50 nM

COc1ncccc1-c1ncc2[nH]c(=O)n(Cc3ccc(-c4nc(C(F)(F)F)cn4C)cc3)c2n1 [Compound I-412, 2-(2-methoxypyridin-3-yl)-9-(4-(1-methyl-4-(trifluoromethyl)-1H-imidazol-2-yl)benzyl)-7,9-dihydro-8H-purin-8-one]
IC50: < 50 nM

CCCOc1ncccc1-c1ncc2[nH]c(=O)n(Cc3ccc(-c4nc(C(F)(F)F)cn4C)cc3)c2n1 [Compound I-413, 9-(4-(1-methyl-4-(trifluoromethyl)-1H-imidazol-2-yl)benzyl)-2-(2-propoxypyridin-3-yl)-7,9-dihydro-8H-purin-8-one]
IC50: < 50 nM

Cn1cc(C(F)(F)F)nc1-c1ccc(Cn2c(=O)[nH]c3cnc(-c4cccnc4OCC4CC4)nc32)cc1 [Compound I-414, 2-(2-(cyclopropylmethoxy)pyridin-3-yl)-9-(4-(1-methyl-4-(trifluoromethyl)-1H-imidazol-2-yl)benzyl)-7,9-dihydro-8H-purin-8-one]
IC50: < 50 nM

CCOCCOc1ncccc1-c1ncc2[nH]c(=O)n(Cc3ccc(-c4nc(C(F)(F)F)cn4C)cc3)c2n1 [Compound I-415, 2-(2-(2-ethoxyethoxy)pyridin-3-yl)-9-(4-(1-methyl-4-(trifluoromethyl)-1H-imidazol-2-yl)benzyl)-7,9-dihydro-8H-purin-8-one]
IC50: < 50 nM

CC(C)Oc1ncccc1-c1ncc2[nH]c(=O)n(Cc3ccc(-c4nc(C(F)(F)F)cn4C)cc3)c2n1 [Compound I-416, 2-(2-isopropoxypyridin-3-yl)-9-(4-(1-methyl-4-(trifluoromethyl)-1H-imidazol-2-yl)benzyl)-7,9-dihydro-8H-purin-8-one]
IC50: < 50 nM

CCC(C)Oc1ncccc1-c1ncc2[nH]c(=O)n(Cc3ccc(-c4nc(C(F)(F)F)cn4C)cc3)c2n1 (stereo not drawn) [Compound I-417, 2-(2-(sec-butoxy)pyridin-3-yl)-9-(4-(1-methyl-4-(trifluoromethyl)-1H-imidazol-2-yl)benzyl)-7,9-dihydro-8H-purin-8-one]
IC50: < 50 nM

CC(Oc1ncccc1-c1ncc2[nH]c(=O)n(Cc3ccc(-c4nc(C(F)(F)F)cn4C)cc3)c2n1)C(F)(F)F (stereo not drawn) [Compound I-418, 9-(4-(1-methyl-4-(trifluoromethyl)-1H-imidazol-2-yl)benzyl)-2-(2-((1,1,1-trifluoropropan-2-yl)oxy)pyridin-3-yl)-7,9-dihydro-8H-purin-8-one]
IC50: < 50 nM

Cn1cc(C(F)(F)F)nc1-c1ccc(Cn2c(=O)[nH]c3cnc(-c4cccnc4OC4CCC4)nc32)cc1 [Compound I-419, 2-(2-cyclobutoxypyridin-3-yl)-9-(4-(1-methyl-4-(trifluoromethyl)-1H-imidazol-2-yl)benzyl)-7,9-dihydro-8H-purin-8-one]
IC50: < 50 nM

Cn1cc(C(F)(F)F)nc1-c1ccc(Cn2c(=O)[nH]c3cnc(-c4cccnc4OC4CC4)nc32)cc1 [Compound I-420, 2-(2-cyclopropoxypyridin-3-yl)-9-(4-(1-methyl-4-(trifluoromethyl)-1H-imidazol-2-yl)benzyl)-7,9-dihydro-8H-purin-8-one]
IC50: < 50 nM

CCOc1ncccc1-c1ncc2[nH]c(=O)n(Cc3ccc(-c4nc(C(F)(F)F)cn4C)cc3)c2n1 [Compound I-421, 2-(2-ethoxypyridin-3-yl)-9-(4-(1-methyl-4-(trifluoromethyl)-1H-imidazol-2-yl)benzyl)-7,9-dihydro-8H-purin-8-one]
IC50: < 50 nM

CC(C)COc1ncccc1-c1ncc2[nH]c(=O)n(Cc3ccc(-c4nc(C(F)(F)F)cn4C)cc3)c2n1 [Compound I-422, 2-(2-isobutoxypyridin-3-yl)-9-(4-(1-methyl-4-(trifluoromethyl)-1H-imidazol-2-yl)benzyl)-7,9-dihydro-8H-purin-8-one]
IC50: < 50 nM

COCCOc1ncccc1-c1ncc2[nH]c(=O)n(Cc3ccc(-c4nc(C(F)(F)F)cn4C)cc3)c2n1 [Compound I-423, 2-(2-(2-methoxyethoxy)pyridin-3-yl)-9-(4-(1-methyl-4-(trifluoromethyl)-1H-imidazol-2-yl)benzyl)-7,9-dihydro-8H-purin-8-one]
IC50: 50 to 200 nM

Cn1cc(C(F)(F)F)nc1-c1ccc(Cn2c(=O)[nH]c3cnc(-c4cccnc4OCC4CCCO4)nc32)cc1 (stereo not drawn) [Compound I-424, 9-(4-(1-methyl-4-(trifluoromethyl)-1H-imidazol-2-yl)benzyl)-2-(2-((tetrahydrofuran-2-yl)methoxy)pyridin-3-yl)-7,9-dihydro-8H-purin-8-one]
IC50: < 50 nM

Cn1cc(C(F)(F)F)nc1-c1ccc(Cn2c(=O)[nH]c3cnc(-c4cccnc4OCC4CCOC4)nc32)cc1 (stereo not drawn) [Compound I-425, 9-(4-(1-methyl-4-(trifluoromethyl)-1H-imidazol-2-yl)benzyl)-2-(2-((tetrahydrofuran-3-yl)methoxy)pyridin-3-yl)-7,9-dihydro-8H-purin-8-one]
IC50: < 50 nM

COC(C)CCOc1ncccc1-c1ncc2[nH]c(=O)n(Cc3ccc(-c4nc(C(F)(F)F)cn4C)cc3)c2n1 (stereo not drawn) [Compound I-426, 2-(2-(3-methoxybutoxy)pyridin-3-yl)-9-(4-(1-methyl-4-(trifluoromethyl)-1H-imidazol-2-yl)benzyl)-7,9-dihydro-8H-purin-8-one]
IC50: < 50 nM

CCC(CC)Oc1ncccc1-c1ncc2[nH]c(=O)n(Cc3ccc(-c4nc(C(F)(F)F)cn4C)cc3)c2n1 [Compound I-427, 9-(4-(1-methyl-4-(trifluoromethyl)-1H-imidazol-2-yl)benzyl)-2-(2-(pentan-3-yloxy)pyridin-3-yl)-7,9-dihydro-8H-purin-8-one]
IC50: < 50 nM

CCC(COC)Oc1ncccc1-c1ncc2[nH]c(=O)n(Cc3ccc(-c4nc(C(F)(F)F)cn4C)cc3)c2n1 (stereo not drawn) [Compound I-428, 2-(2-((1-methoxybutan-2-yl)oxy)pyridin-3-yl)-9-(4-(1-methyl-4-(trifluoromethyl)-1H-imidazol-2-yl)benzyl)-7,9-dihydro-8H-purin-8-one]
IC50: 50 to 200 nM

CN(C)CCOc1ncccc1-c1ncc2[nH]c(=O)n(Cc3ccc(-c4nc(C(F)(F)F)cn4C)cc3)c2n1 [Compound I-429, 2-(2-(2-(dimethylamino)ethoxy)pyridin-3-yl)-9-(4-(1-methyl-4-(trifluoromethyl)-1H-imidazol-2-yl)benzyl)-7,9-dihydro-8H-purin-8-one]
IC50: 200 to 2000 nM

CC(C)c1ccccc1-c1ncc2[nH]c(=O)n(Cc3ccc(-c4nc(C(F)(F)F)cn4C4CNC4)cc3)c2n1 [Compound I-430, 9-(4-(1-(azetidin-3-yl)-4-(trifluoromethyl)-1H-imidazol-2-yl)benzyl)-2-(2-isopropylphenyl)-7,9-dihydro-8H-purin-8-one]
IC50: < 50 nM

CC(C)c1ccccc1-c1ncc2[nH]c(=O)n(Cc3ccc(-n4ccc(C5CCNCC5)n4)cc3)c2n1 [Compound I-431, 2-(2-isopropylphenyl)-9-(4-(3-(piperidin-4-yl)-1H-pyrazol-1-yl)benzyl)-7,9-dihydro-8H-purin-8-one]
IC50: 50 to 200 nM

CC(C)c1ccccc1-c1ncc2[nH]c(=O)n(Cc3ccc(-n4ccc(N5CCNCC5)n4)cc3)c2n1 [Compound I-432, 2-(2-isopropylphenyl)-9-(4-(3-(piperazin-1-yl)-1H-pyrazol-1-yl)benzyl)-7,9-dihydro-8H-purin-8-one]
IC50: 200 to 2000 nM

CC(C)c1ccccc1-c1ncc2c(n1)n(Cc1ccc(-n3ccc(C4CCNCC4)n3)cc1)c(=O)n2C [Compound I-433, 2-(2-isopropylphenyl)-7-methyl-9-(4-(3-(piperidin-4-yl)-1H-pyrazol-1-yl)benzyl)-7,9-dihydro-8H-purin-8-one]
IC50: 200 to 2000 nM
